In brackets after ≈: the same amount, converted by molar mass. Several values for one entry are separate records, joined by “and”; a condition that tells them apart may be missing. Identical values can stand only once. Like-named read-outs stand apart in the source and are kept apart here. Bounds are passed on as bounds.

Data set [1] has as its system Staph. epiderm. clin. Kind of data set: Antimicrobic activity, in vitro (CIM), second clinical isolate. The data set is classed as cell-based, Staph. epiderm. (isolated clinically). From the text:
(§1) Chim.Farm.119, p.181, 1980.
(§2) Antimicrobic activity, in vitro.
(§3) CIM^(1) values (mcg/ml)
(§4) ^(1) CIM = Mic = Minimal inhibitory concentration
(§5) ^(2) Clin. = Isolated clinically.

The test system of the next data set is Serr. marcescens cl. Kind of data set: Antimicrobic activity, in vitro (CIM). The data set is classed as cell-based, Serr. marcescens (isolated clinically).
From the text: as §1, §2, §3, §4, §5

In a further data set the test system is Micrococcus luteus 9341. As to the kind of experiment: Antimicrobic activity, in vitro (CIM). The data set is classed as cell-based, Micrococcus luteus 9341 (ATCC). The settings on record: Micrococcus luteus 9341, in vitro.
From the text: as §1, §2, §3, §4
(§6) ^(3) The 4digit strains are ATCC's

The next data set relates to Strept. faecalis 8043. Kind of data set: Antimicrobic activity, in vitro (CIM). The class given is cell-based, Strept. faecalis 8043 (ATCC). The settings on record: Strept. faecalis 8043, in vitro.
From the text: as §1, §2, §3, §4, §6

Another data set has as its system Staph. aureus 6538. Kind of data set: Antimicrobic activity, in vitro (CIM). The class given is cell-based, Staph. aureus 6538 (ATCC). The settings on record: Staph. aureus 6538, in vitro.
From the text: as §1, §2, §3, §4, §6

Data set [2] has as its system Staph. epiderm. clin. Kind of data set: Antimicrobic activity, in vitro (CIM), first clinical isolate. The data set is classed as cell-based, Staph. epiderm. (isolated clinically).
From the text: as §1, §2, §3, §4, §5

The next data set deals with rabbit mucoproduction. As to the kind of experiment: Activity on the rabbit mucoproduction (method of Scuri et al.). The class given is in vivo.
From the text: as §1
Activity on the rabbit mucoproduction.

Another data set relates to rat. As to the kind of experiment: Oral acute toxicity in the rat. The class given is in vivo.
From the text: as §1
(§7) Oral acute toxicity in the rat

For a further data set, the system named is Staph. aureus 1414. As to the kind of experiment: Antimicrobic activity, in vitro (CIM). The class given is cell-based, Staph. aureus 1414 (ATCC). The settings on record: Staph. aureus 1414, in vitro.
From the text: as §1, §2, §3, §4, §6

For data set [3], the system named is staphylococcus aureus. Details: unit not given beside the values. The settings on record: intramuscular. From the text:
In Table 4, the activity data relating to the mucus production in the rabbit is reported, according to the method by Scuri et al., published in Boll. Chim.Farm.119, p.181, 1980.

Data set [4] concerns staphylococcus aureus. Details: unit not given beside the values. The settings on record: oral, 1 treatment.
Another data set relates to Candida albicans. As to the kind of experiment: Antimicrobic activity, in vitro (CIM). The data set is classed as cell-based.
From the text: as §1, §2, §3, §4

In another data set the test system is Pseudomonas aeruginosa. Kind of data set: Antimicrobic activity, in vitro (CIM). The data set is classed as cell-based.
From the text: as §1, §2, §3, §4

A further data set concerns Proteus vulgaris. Kind of data set: Antimicrobic activity, in vitro (CIM). The class given is cell-based.
From the text: as §1, §2, §3, §4

The test system of another data set is Escherichia coli 418. Kind of data set: Antimicrobic activity, in vitro (CIM). The data set is classed as cell-based. The settings on record: Escherichia coli 418, in vitro.
From the text: as §1, §2, §3, §4

Data set [5] is described as follows: Oral acute toxicity in the rat. The class given is in vivo. The settings on record: in vivo, rat, read-out: DL50 (the source's name).
From the text: as §1, §7

Where [6] appears, read: read-out: CIM (Mic, minimal inhibitory concentration).
Where [7] appears, read: Staphylococcus aureus, read-out: CIM (Mic, minimal inhibitory concentration).

Take `CC[C@H]1OC(=O)[C@H](C)[C@@H](O[C@H]2C[C@@](C)(OC)[C@@H](O)[C@H](C)O2)[C@H](C)[C@@H](O[C@@H]2O[C@H](C)C[C@H](N(C)C)[C@H]2O)[C@](C)(O)C[C@@H](C)C(=O)[C@H](C)[C@@H](O)[C@]1(C)O.O=C(O)c1ccccc1C(=O)N1CCSC1` [CO/1316, erythromycin salt of o-carbonyl(1-thiazolidinyl)-benzoic acid]: the “CIM (Mic, minimal inhibitory concentration)” value came out at 0.1 µg/mL with Staph. epiderm. clin. [1]; 100 µg/mL with Serr. marcescens cl.; 0.1 µg/mL in the data set with Micrococcus luteus 9341; 0.6 µg/mL in the data set with Strept. faecalis 8043; 10 µg/mL in the data set on Staph. aureus 6538; 10 µg/mL in the data set with Staph. epiderm. clin. [2]. The “CIM (Mic, minimal inhibitory concentration)” value in the data set with Staph. aureus 1414 is 10 µg/mL; in the data set on Candida albicans it was 100 µg/mL; in the data set with Pseudomonas aeruginosa (in vitro) it was “+100 mcg/ml”; in the data set on Proteus vulgaris, 5 µg/mL; in the data set on Escherichia coli 418, 50 µg/mL. Further, in the data set on rabbit mucoproduction (40 mg/kg ev), the “Anim. with increase / Treated anim.” value is 9/14. The “Anim. with increase / Treated anim., %” value in the data set on rabbit mucoproduction (40 mg/kg ev) is given as 64/2. Moreover, the “Mucoproduction: Var. %” value with rabbit mucoproduction (40 mg/kg ev) is given as “+45%”. Also, in the data set with rat, the “acute oral toxicity compared with erythromycin base” value is recorded as “substantially coincides with that of the erythromycin base”. Also, in the data set on rat (rat), the DL50 is recorded as more than 5.0 g/kg. For the same compound, the “Solubility in 95% ethanol” value (95% ethanol) was determined as 32%. For the same compound, the Solubility in acetone (acetone) is reported as 50%. This compound registered a Solubility in chloroform (chloroform) of 50%. The compound also had a Solubility in dioxane (dioxane) of 15%. The same compound displayed a Solubility in ethanol (ethanol) of 50%. In addition, the “Solubility in ethyl ether” value (ethyl ether) worked out at 0.1%. Besides, where the note is “methanol”, the Solubility in methanol came out at 57%. For the same compound, the Solubility in n-hexane result (n-hexane) is given as “pratically insoluble”. The compound also returned a Solubility in toluene (toluene) of 0.3%. In addition, the Solubility in water (water, ambient temperature) is 3 % W/V. Besides, the DI50 was 76 and 152 in the data set on staphylococcus aureus [3] (medium infection, 5 treatments); 210 and 390 with staphylococcus aureus [3] (serious infection, 1 treatment); 350 and 510 in the data set with staphylococcus aureus [4] (medium infection); 560 and 720 with staphylococcus aureus [4] (serious infection).

For the compound `CC[C@H]1OC(=O)[C@H](C)[C@@H](O[C@H]2C[C@@](C)(OC)[C@@H](O)[C@H](C)O2)[C@H](C)[C@@H](O[C@@H]2O[C@H](C)C[C@H](N(C)C)[C@H]2O)[C@](C)(O)C[C@@H](C)C(=O)[C@H](C)[C@@H](O)[C@]1(C)O` [Erythromycin], the MIC turned out to be 0.1 µg/mL (≈ 0.136 µM) in the data set with Staph. epiderm. clin. [1] (setting [6]); 50 µg/mL (≈ 68.1 µM) in the data set with Serr. marcescens cl. (Serratia marcescens, read-out: CIM (Mic, minimal inhibitory concentration)); 0.1 µg/mL (≈ 0.136 µM) in the data set on Micrococcus luteus 9341 (setting [6]); 0.3 µg/mL (≈ 0.409 µM) in the data set on Strept. faecalis 8043 (Enterococcus faecalis, read-out: CIM (Mic, minimal inhibitory concentration)); 10 µg/mL (≈ 13.6 µM) in the data set on Staph. aureus 6538 (setting [7]); 10 µg/mL (≈ 13.6 µM) in the data set on Staph. epiderm. clin. [2] (setting [6]). Also, the MIC in the data set on Staph. aureus 1414 (setting [7]) was 10 µg/mL (≈ 13.6 µM); in the data set on Candida albicans (setting [6]), 100 µg/mL (≈ 136 µM); in the data set with Pseudomonas aeruginosa (setting [6]), 100 µg/mL (≈ 136 µM); in the data set with Proteus vulgaris (setting [6]) it was 2.5 µg/mL (≈ 3.41 µM); with Escherichia coli 418 (setting [6]), 25 µg/mL (≈ 34.1 µM). The “Anim. with increase / Treated anim.” value in the data set on rabbit mucoproduction (30 mg/kg ev) is given as 0/10. Also, in the data set on rabbit mucoproduction (30 mg/kg ev), the “Mucoproduction: Var. %” value is “Inactive”. For the same compound, the LD50 in [5] was more than 5000 mg/kg.

The record behind these values is patent publication US4575496A, “Erythromycin salt of the o-carbonyl(1-thiazolidinyl)-benzoic acid and pharmaceutical compositions containing it” (Camillo Corvi S.p.A., priority 1983, dated 1986).
